In patent publication US11684763B2, “Multi-component bio-active drug delivery and controlled release to the skin by microneedle array devices” (University of Pittsburgh—Of the Commonwealth System of …, priority 2015, dated 2023):

What was measured:
[1] = tested on: epidermal cells of living human skin explants; details: 5 mg/g of CMC; arrays removed after 5 minutes; 72 hours of exposure
Procedure: Cytoxan® was integrated at a concentration of 5 mg/g of CMC, enabling delivery of approximately about 140 μg per array. This is a therapeutically relevant concentration based on the area of skin targeted, yet well below levels associated with systemic toxicities. Living human skin organ cultures were used to assess the cytotoxicty of Cytoxan®. Cytoxan® was delivered by application of arrays to skin explants as we previously described. Arrays and residual material were removed 5 minutes after application, and after 72 hours of exposure, culture living skin explants were cryo-sectioned and fixed. Apoptosis was evaluated using green fluorescent TUNEL assay (In Situ Cell Death Detection Kit, TMR […], Roche, cat #:11-684-795-910).

[2] = Dye release from MNAs inserted into 4% agar test-gels; format: physicochemical; details: dually loaded MNA
Text: To illustrate the delivery of multiple drugs with distinct release kinetics, MNAs were fabricated to delivery two distinct cargos by distinct release kinetics. Specifically, MNAs were fabricated to release the marker Toluidine Blue in an initial burst, followed by a sustained release of the marker FD&C Red40. Dyes were directly loaded in the MNA scaffold matrix (in this case CMC) of the needle tips and in some cases a second dye, encapsulated in a sustained release polymer was layer directly below. MNAs were inserted into 4% agar test-gels and removed after 1 min.
Images of dye diffusion were collected at the indicated time points (FIG. 39A). […] Alternatively, MNAs were fabricated with toluidine blue tip-loaded and FD&C Red40 encapsulated in a sustained release polymer (FIG. 39C). MNAs were inserted into 4% agar test-gel and removed after 1 min. Images were collected at the indicated time-points. […] Upper panels depict images of microneedles from MNAs before application. The middle images are the imprints of the arrays 1 minute after application and MNA removal. Lower panels depicted the indicated representative magnified images at the indicated time points.

B16 skin tumors = assay: B16 melanoma model: established skin tumors treated with MNAs; details: MNA once weekly for three weeks; for tumor growth: compared to untreated tumor bearing animals; for survival: untreated animals 100% mortality
Procedure: The B16 melanoma model was used as a model tumor to test these novel approaches.
Visible established cutaneous tumors were treated once weekly for three weeks with MNAs containing either doxorubicin alone, Poly(I:C) alone, or doxorubicin and Poly(I:C) incorporated into the same MNA. The doxorubicin dose chosen corresponds to an MNA dose that induces apoptosis in human skin without causing necrosis. Tumor growth and survival were measured regularly for the duration of the study.

| Molecule | tumor growth (B16 skin tumors) | survival (B16 skin tumors) | other results |
| --- | --- | --- | --- |
| O=P1(N(CCCl)CCCl)NCCCO1 (centres unmarked) [Cytoxan®, cyclophosphamide] | – | – | apoptosis of epidermal cells (TUNEL) [1]: extensive apoptosis of epidermal cells |
| COc1cc(S(=O)(=O)[O-])c(C)cc1N=Nc1c(O)ccc2cc(S(=O)(=O)[O-])ccc12.[Na+].[Na+] [FD&C Red40] | – | – | release of encapsulated dye ([2]; dye encapsulated in a sustained release polymer): released slowly over an extended time period; period of release from depot ([2]; dye in underlying layer of sustained release polymer): 10 days |
| Cc1cc2nc3ccc(N(C)C)cc3[s+]c2cc1N.[Cl-] [Toluidine Blue] | – | – | release of tip-loaded dye ([2]; dye in CMC in the needle tip): released in an initial burst |
| COc1cccc2c1C(=O)c1c(O)c3c(c(O)c1C2=O)C[C@@](O)(C(=O)CO)C[C@@H]3O[C@H]1C[C@H](N)[C@H](O)[C@H](C)O1 [doxorubicin] | slowed tumor growth | 30% | – |
| Poly(I:C) | slowed tumor growth | 50% | – |
